≈ marks a conversion by molar mass, not a printed value.
Target: T1, mushroom tyrosinase
T1 construct: gene PPO3
Test: L-DOPA oxidation, absorbance at […] nm after […] min
Format: biochemical
Settings: 0.1 M L-DOPA solution (300 µL in 610 µL assay), 0.05 M phosphate pH 6.8, room temperature, 10 min preincubation

IC50: 5.38 µg/mL (≈ 8.81 µM)
SMILES: C[C@@H]1O[C@@H](OC[C@H]2O[C@@H](Oc3c(-c4ccc(O)c(O)c4)oc4cc(O)cc(O)c4c3=O)[C@H](O)[C@@H](O)[C@@H]2O)[C@H](O)[C@H](O)[C@H]1O [rutin]

Source: article PMC11429051, “The Effect of Maturity Stage on Polyphenolic Composition, Antioxidant and Anti-Tyrosinase Activities of Ficus rubiginosa Desf. ex Vent. Extracts” (Antioxidants, 2024)
